Values quoted from earlier work, collected in patent publication US7202233B2, “Alprazolam inclusion complexes and pharmaceutical compositions thereof” (Farmarc Nederland BV, priority 2000, dated 2007).

Assays:
[1] = above pH 6; FIG. 1 (Cho et al. 1983)
[2] = sublingual use of commercially available oral tablet dosage forms
[3] = tablet formulation, conventional orogastric administration
[4] = 20% solution of 2-hydroxypropyl-beta-cyclodextrin

Cc1nnc2n1-c1ccc(Cl)cc1C(c1ccccc1)=NC2 [alprazolam, 8-chloro-1-methyl-6-phenyl-4H-[1,2,4]triazolo[4,3a][1,4]benzodiazepine]
presence of ring-open form as a function of pH [1]: no ring-open alprazolam above pH 6
speed of onset, sublingual versus conventional orogastric administration [2]: no significant benefit
time of maximum plasma levels post-dose [3]: 0.7 to 1.8 h
solubility enhancement [4]: 16 fold
